Source: the supplement of paper PMC10307832

Columns and labels:
Test in all cases: relative viability (nuclei count vs DMSO), 5 days (fraction); higher = more cells survive
[1] = compound: C=CCc1cccc(/C=N/NC(=O)CN2CCN(Cc3ccccc3)CC2)c1O [PAC-1] + CC(C)C[C@H](NC(=O)[C@H](Cc1ccccc1)NC(=O)c1cnccn1)B(O)O [Bortezomib] (partner 0.002 µM)
Summary of the method: (§1)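 The day after seeding in 1536-well plates, lung cancer cell lines were treated by pin tool with a single drug, or with a fixed anchor-drug dose together with five library-drug doses (not always all listed) in √10 steps. After 5 days, a combined fix-and-stain solution (final 0.05% Triton X-100, 1% formaldehyde, 1 ug/ml Hoechst) was added. Nuclei counted on 4× images gave relative viability as treated counts over vehicle counts, reported as the median of duplicate plates.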

[2] = compound: C=CC(=O)N1CCC[C@@H](n2nc(-c3ccc(Oc4ccccc4)cc3)c3c(N)ncnc32)C1 [Ibrutinib] + CCNC(=O)c1noc(-c2cc(C(C)C)c(O)cc2O)c1-c1ccc(CN2CCOCC2)cc1 [Luminespib] (partner 0.01 µM)
Summary of the method: as §1

[3] = compound: C=CC(=O)N1CCC[C@@H](n2nc(-c3ccc(Oc4ccccc4)cc3)c3c(N)ncnc32)C1 [Ibrutinib] + C[C@@H](Oc1cc(-c2cnn(C3CCNCC3)c2)cnc1N)c1c(Cl)ccc(F)c1Cl [Crizotinib] (partner 1 µM)
Summary of the method: as §1

[4] = compound: C=CCc1cccc(/C=N/NC(=O)CN2CCN(Cc3ccccc3)CC2)c1O [PAC-1] + O=C(CCCCCCC(=O)Nc1ccccc1)NO [Vorinostat] (partner 1 µM)
Summary of the method: as §1

Cell Line | relative viability ([1]; first compound 0.02 µM) | relative viability ([1]; first compound 0.06325 µM) | relative viability ([1]; first compound 0.2 µM) | relative viability ([1]; first compound 2 µM) | relative viability ([2]; first compound 0.005 µM) | relative viability ([2]; first compound 0.01581 µM) | relative viability ([2]; first compound 0.05 µM) | relative viability ([2]; first compound 0.1581 µM) | relative viability ([2]; first compound 0.5 µM) | relative viability ([3]; first compound 0.005 µM) | relative viability ([3]; first compound 0.01581 µM) | relative viability ([3]; first compound 0.05 µM) | relative viability ([3]; first compound 0.1581 µM) | relative viability ([3]; first compound 0.5 µM) | relative viability ([4]; first compound 0.02 µM) | relative viability ([4]; first compound 0.06325 µM) | relative viability ([4]; first compound 0.2 µM) | relative viability ([4]; first compound 2 µM)
NCI-H2085 | 1.09 | 1.1 | 1.14 | 1.12 | 0.349 | 0.465 | 0.504 | 0.489 | 0.447 | 0.92 | 0.852 | 0.772 | 0.918 | 0.706 | 0.791 | 0.789 | 0.737 | 0.822
NCI-H650 | 0.755 | 0.871 | 0.736 | 0.735 | 0.775 | 0.757 | 0.737 | 0.885 | 0.949 | – | 0.656 | – | 0.863 | 0.805 | 0.494 | 0.36 | 0.442 | 0.395
NCI-H460 | 1.3 | 1.02 | 0.859 | 1.14 | 0.0343 | 0.0329 | 0.0328 | 0.0586 | 0.0349 | 1.11 | 0.614 | 1.04 | – | 1.12 | 0.755 | 0.75 | 0.642 | 0.707
NCI-H1666 | 0.849 | 0.809 | 0.828 | 0.912 | 0.951 | 0.975 | 0.956 | 1.08 | 0.784 | 1.01 | 0.864 | 0.904 | 0.932 | 0.697 | 1.08 | 1.03 | 1 | 1.09
LK-2 | – | – | – | – | – | 0.183 | 0.176 | 0.166 | 0.164 | – | 0.355 | 0.216 | 0.275 | 0.252 | 0.317 | 0.306 | 0.301 | 0.58
NCI-H2009 | 1.01 | 0.994 | 0.897 | 0.956 | 1.07 | 1.06 | 1.07 | 1.02 | 1.05 | 1.04 | 1.04 | 1.08 | 1.11 | 1.1 | 0.669 | 0.685 | 0.732 | 0.741
COR-L 105 | 0.71 | 0.695 | 0.757 | 0.792 | 0.765 | 0.802 | 0.744 | 0.883 | 0.599 | 0.654 | 0.846 | 0.472 | 0.9 | 0.235 | 1.08 | 0.817 | 0.817 | 0.801
LXF-289 | 0.983 | 1.01 | 1.01 | 0.995 | 0.685 | 0.673 | 0.722 | 0.692 | 0.643 | 0.948 | 0.804 | 0.807 | 0.784 | 0.791 | 0.793 | 0.765 | 0.731 | 0.732
HARA | 1.08 | 1.12 | 0.853 | 1.11 | 0.975 | 0.748 | 0.548 | 0.746 | 0.324 | 1.16 | 0.913 | 1.03 | 1.08 | 0.883 | – | 0.56 | 0.529 | 0.526
NCI-H1975 | 0.35 | 0.396 | 0.378 | 0.386 | 0.162 | 0.183 | 0.212 | 0.254 | 0.138 | 0.986 | 0.859 | 0.88 | 0.96 | 0.558 | 0.71 | 0.713 | 0.765 | 0.77
UMC-11 | 0.693 | 0.55 | 0.605 | 0.782 | 0.873 | 0.999 | 1.07 | 1.05 | 0.98 | 0.538 | 0.598 | 0.596 | 0.681 | 0.57 | 0.36 | 0.41 | 0.349 | 0.513
Calu-6 | 1.07 | 1.09 | 1 | 1.1 | – | – | – | – | – | 0.911 | 0.576 | 0.802 | 0.723 | 0.872 | – | – | – | –
NCI-H1703 | 0.29 | 0.268 | 0.4 | 0.353 | – | – | – | – | – | – | – | 0.839 | 0.934 | 0.729 | – | – | – | –
IA-LM | 0.803 | 0.756 | 0.783 | 0.807 | – | – | – | – | – | 0.75 | 0.8 | 1.11 | 1 | 0.947 | 1.15 | 0.915 | 0.879 | 0.961
NCI-H1944 | – | – | – | – | 0.649 | 0.57 | 0.714 | 0.669 | 0.536 | 0.99 | 0.88 | 0.963 | – | 0.782 | 0.537 | 0.555 | 0.542 | 0.642
NCI-H1623 | – | – | – | – | 0.382 | 0.505 | 0.486 | 0.414 | 0.304 | – | – | – | – | – | – | – | – | –
NCI-H1395 | – | – | – | – | 0.488 | 0.739 | 1.15 | 0.788 | 0.702 | – | – | – | – | – | 0.704 | 0.747 | 0.784 | 0.623
NCI-H2342 | – | – | – | – | 0.719 | 0.608 | 0.707 | 0.655 | 0.497 | – | – | – | – | – | 0.733 | 0.659 | 0.802 | 0.739
NCI-H2170 | – | – | – | – | 0.435 | 0.425 | 0.446 | 0.741 | 0.344 | 1.07 | 0.824 | 0.452 | 1.19 | 0.227 | 0.894 | 0.809 | 0.795 | 0.775
NCI-H522 | – | – | – | – | 1.11 | 1.05 | 1.17 | 1.07 | 0.922 | – | – | – | – | – | 0.902 | 0.846 | 0.941 | 0.862
NCI-H1792 | 0.982 | 1.01 | 0.947 | 0.896 | – | 0.486 | 0.485 | 0.364 | 0.367 | 0.979 | 0.989 | 1.13 | 0.654 | 0.961 | – | – | – | –
NCI-H1648 | – | – | – | – | – | – | – | – | – | – | – | – | – | – | 0.49 | 0.42 | 0.431 | 0.463
NCI-H358 | – | – | – | – | 0.366 | 0.253 | 0.306 | 0.267 | 0.174 | 0.706 | 0.45 | 0.401 | 0.682 | 0.303 | 0.645 | 0.665 | 0.706 | 0.674
HCC-366 | 1.01 | 1.04 | 1.07 | 1.14 | – | – | – | – | – | 0.623 | 0.525 | 0.506 | 0.45 | 0.514 | 0.396 | 0.339 | 0.258 | 0.449
